Reference: ChEMBL document CHEMBL1149187, “Design, synthesis, and biological activity of 4-[(4-cyano-2-arylbenzyloxy)-(3-methyl-3H-imidazol-4-yl)methyl]benzonitriles as potent and selective farnesyltransferase inhibitors” (J Med Chem, 2004)

Columns and labels:
[1] = Area under plasma concentration time curve in dog upon oral administration
[2] = Half-life in dog upon oral administration; details: in vivo
[3] = biological target: T1, Protein farnesyltransferase (Homo sapiens, UniProt P49354+P49356); assay: Effective concentration required for inhibition of farnesylation of Ras protein in NIH3T3 cells; format: functional, cell-based, Mus musculus
in vivo [4] = details: dog, plasma
in vivo [5] = details: dog
Canis familiaris [6] = assay: Half-life in dog upon oral administration; Unable to calculate; format: ADME, organism-based, Canis lupus familiaris; details: in vivo
Canis familiaris [7] = species: Canis familiaris; assay: Plasma clearance in dog; Unable to calculate; format: ADME, organism-based, Canis lupus familiaris; details: in vivo
[8] = biological target: T1, Protein farnesyltransferase; assay: (§1) Inhibition of Farnesyltransferase; format: protein-complex assay
[9] = biological target: Geranylgeranyl transferase type I (Homo sapiens, UniProt P49354+P53609); assay: Inhibition of Geranylgeranyl transferase type I; format: protein-complex assay
[10] = biological target: T1, Protein farnesyltransferase; assay: as §1; format: protein-complex assay; remark: listed apart in the source

SMILES: Cn1cncc1C(OCc1ccc(C#N)cc1C(=O)Nc1ccccc1)c1ccc(C#N)cc1 (stereo not given)
- AUC [1]: 5720 ng·h/mL
- half-life [2]: 18.4 h
- EC50 [3]: 0.012 µM
- clearance (in vivo [4]): 3.17 mL/min/kg
- bioavailability (in vivo [5]): 96%

SMILES: Cn1cncc1C(OCc1ccc(C#N)cc1-c1cccc(Cl)c1)c1ccc(C#N)c(F)c1 (stereo not given)
- AUC [1]: 1580 ng·h/mL
- half-life [2]: 8.7 h
- EC50 [3]: 0.036 µM
- clearance (in vivo [4]): 8 mL/min/kg
- bioavailability (in vivo [5]): 71%

SMILES: COc1cccc(-c2cc(NS(C)(=O)=O)ccc2COC(c2ccc(C#N)cc2)c2cncn2C)c1 (stereo not given)
- EC50 [3]: > 0.1 µM

SMILES: CCOc1cccc(-c2cc(Cl)ccc2COC(c2ccc(C#N)cc2)c2cncn2C)c1 (stereo not given)
- EC50 [3]: 0.0046 µM

SMILES: N#Cc1ccc(C(OCc2ccc(C#N)cc2-c2ccc3c(c2)OCO3)c2cnccc2Cl)cc1 (stereo not given)
- EC50 [3]: > 0.1 µM

SMILES: Cn1cncc1C(OCc1ccc(C#N)cc1NS(=O)(=O)c1cccs1)c1ccc(C#N)cc1 (stereo not given)
- EC50 [3]: > 0.1 µM

SMILES: Cc1ccc(S(=O)(=O)Nc2cc(C#N)ccc2COC(c2ccc(C#N)cc2)c2cncn2C)cc1 (stereo not given)
- EC50 [3]: 0.013 µM

SMILES: Cn1cncc1C(OCc1ccc(Cl)cc1-c1ccccc1Cl)c1ccc(C#N)cc1 (stereo not given)
- AUC [1]: 9850 ng·h/mL
- T1/2 (Canis familiaris [6]): Unable to calculate
- Clp (Canis familiaris [7]): Unable to calculate
- EC50 [3]: > 1 µM
- bioavailability (in vivo [5]): 65%

SMILES: COCc1cccc(-c2cc(C#N)ccc2COC(c2ccc(C#N)cc2)c2cncn2C)c1 (stereo not given)
- AUC [1]: 260 ng·h/mL
- half-life [2]: 2.2 h
- EC50 [3]: 0.001 µM
- clearance (in vivo [4]): 8.5 mL/min/kg

SMILES: Cn1cncc1C(OCc1ccc(C#N)cc1-c1cccc2ccccc12)c1ccc(C#N)cc1 (stereo not given)
- EC50 [3]: 0.014 µM

SMILES: Cn1cncc1C(OCc1ccc(C#N)cn1)c1ccc(C#N)c(-c2cccc3ccccc23)c1 (stereo not given)
- IC50 [8]: 0.0004 µM
- EC50 [3]: 0.008 µM
- IC50 [9]: 0.024 µM

SMILES: Cn1cncc1C(OCc1ccc(C#N)cc1NCc1cc(F)cc(F)c1)c1ccc(C#N)cc1 (stereo not given)
- EC50 [3]: 0.15 µM

SMILES: Cc1ccc(-c2cc(C#N)ccc2COC(c2ccc(C#N)cc2)c2cncn2C)cc1 (stereo not given)
- EC50 [3]: > 0.1 µM

SMILES: COCC(=O)Nc1ccc(COC(c2ccc(C#N)cc2)c2cncn2C)c(-c2cccc(OC)c2)c1 (stereo not given)
- EC50 [3]: > 0.1 µM

SMILES: COc1cccc(-c2cc(Cl)ccc2COC(c2ccc(C#N)cc2)c2cncn2C)c1 (stereo not given)
- EC50 [3]: 0.1 µM

SMILES: Cn1cncc1C(OCc1ccc(C#N)cc1-c1cccc(Cl)c1)c1ccc(C#N)cc1F (stereo not given)
- EC50 [3]: 0.0033 µM

SMILES: COC(=O)c1ccc(COC(c2ccc(C#N)cc2)c2cncn2C)c(-c2cccc(OC)c2)c1 (stereo not given)
- EC50 [3]: > 0.1 µM

SMILES: Cn1cncc1C(OCc1ccc(C#N)cc1NS(=O)(=O)c1cccc2ccccc12)c1ccc(C#N)cc1 (stereo not given)
- EC50 [3]: > 0.1 µM

SMILES: CCOc1ccc(-c2cc(C#N)ccc2COC(c2ccc(C#N)cc2)c2cncn2C)cc1 (stereo not given)
- EC50 [3]: 0.013 µM

SMILES: COc1cccc(-c2cc([N+](=O)[O-])ccc2COC(c2ccc(C#N)cc2)c2cncn2C)c1 (stereo not given)
- EC50 [3]: 0.00081 µM

SMILES: COc1cccc(-c2cc(C=O)ccc2COC(c2ccc(C#N)cc2)c2cncn2C)c1 (stereo not given)
- EC50 [3]: > 0.1 µM

SMILES: Cc1ncc(C(OCc2ccc(C#N)cc2-c2cccc(Cl)c2)c2ccc(C#N)cc2)n1C (stereo not given)
- EC50 [3]: 0.154 µM

SMILES: COc1ccc(-c2cc(C#N)ccc2COC(c2ccc(C#N)cc2)c2cncn2C)cc1 (stereo not given)
- AUC [1]: 760 ng·h/mL
- half-life [2]: 3.6 h
- EC50 [3]: 0.007 µM
- clearance (in vivo [4]): 12.2 mL/min/kg

SMILES: CCOc1cccc(-c2cc(C#N)ccc2COC(c2ccc(C#N)cc2)c2cncn2C)c1 (stereo not given)
- AUC [1]: 1130 ng·h/mL
- half-life [2]: 2.2 h
- IC50 [10]: 0.00069 µM
- EC50 [3]: 0.00019 µM
- clearance (in vivo [4]): 16.7 mL/min/kg

SMILES: COc1cccc(-c2cc(C#N)ccc2COC(c2ccc(C#N)c(Cl)c2)c2cncn2C)c1 (stereo not given)
- EC50 [3]: 0.13 µM

SMILES: Cn1cncc1C(OCc1ccc(C#N)cc1-c1cccc2cccnc12)c1ccc(C#N)cc1 (stereo not given)
- EC50 [3]: 0.015 µM

SMILES: Cn1cncc1C(OCc1ccc(C#N)cc1-c1ccc(F)c(F)c1)c1ccc(C#N)cc1 (stereo not given)
- EC50 [3]: 0.096 µM

SMILES: Cn1cncc1C(OCc1ccc(Cl)cc1-c1ccc(Cl)cc1)c1ccc(C#N)cc1 (stereo not given)
- EC50 [3]: 0.525 µM

SMILES: Cn1cncc1C(OCc1ccc(Cl)cc1-c1cccc(Cl)c1)c1ccc(C#N)cc1 (stereo not given)
- EC50 [3]: 0.39 µM

SMILES: Cc1ncc(C(OCc2ccc(C#N)cc2-c2ccc3c(c2)OCO3)c2ccc(C#N)cc2)n1C (stereo not given)
- AUC [1]: 100 ng·h/mL
- half-life [2]: 0.9 h
- EC50 [3]: 0.0098 µM
- clearance (in vivo [4]): 31.2 mL/min/kg
- bioavailability (in vivo [5]): 15.2%

SMILES: Cn1cncc1C(OCc1ccc(C#N)cc1-c1cccc(Cl)c1)c1ccc(C(F)(F)F)cc1 (stereo not given)
- EC50 [3]: > 0.1 µM

SMILES: COc1cccc(-c2cc(C#N)ccc2COC(c2ccc(Cl)cc2)c2cncn2C)c1 (stereo not given)
- EC50 [3]: 0.0177 µM

SMILES: Cn1cncc1C(OCc1ccc(C#N)cc1-c1cccc(Cl)c1)c1ccc(C#N)cc1 (stereo not given)
- AUC [1]: 9890 ng·h/mL
- half-life [2]: 4.7 h
- EC50 [3]: 0.0052 µM
- clearance (in vivo [4]): 6.67 mL/min/kg

SMILES: COc1cccc(-c2cc(N)ccc2COC(c2ccc(C#N)cc2)c2cncn2C)c1 (stereo not given)
- EC50 [3]: > 0.1 µM

SMILES: Cn1cncc1C(OCc1ccc(C#N)cc1-c1ccc2c(c1)OC(F)(F)O2)c1ccc(C#N)cc1 (stereo not given)
- AUC [1]: 2760 ng·h/mL
- half-life [2]: 1.3 h
- EC50 [3]: 0.0091 µM
- clearance (in vivo [4]): 5.17 mL/min/kg

SMILES: Cn1cncc1C(OCc1ccc(C#N)cc1)c1ccc(C#N)c(-c2cccc3ccccc23)c1 (stereo not given)
- IC50 [8]: 0.0003 µM
- IC50 [9]: 0.018 µM

SMILES: Cn1cncc1C(OCc1ccc(C#N)cc1-c1ccc(OC(F)(F)F)cc1)c1ccc(C#N)cc1 (stereo not given)
- AUC [1]: 1530 ng·h/mL
- half-life [2]: 6.7 h
- EC50 [3]: 0.0051 µM
- clearance (in vivo [4]): 7.33 mL/min/kg

SMILES: Cn1cncc1C(OCc1ccc(C#N)cc1C(=O)Nc1cccc(Cl)c1)c1ccc(C#N)cc1 (stereo not given)
- EC50 [3]: 0.0035 µM

SMILES: Cn1cncc1C(OCc1ccc(C#N)cc1-c1ccc2c(c1)OCO2)c1ccc(C#N)cc1 (stereo not given)
- AUC [1]: 3660 ng·h/mL
- half-life [2]: 2.7 h
- EC50 [3]: < 0.001 µM
- clearance (in vivo [4]): 10 mL/min/kg
